Laboratory results taken from BigSolDB 2.1.

Compound: C[n+]1ccn(CCOCCn2cc[n+](C)c2)c1.F[P-](F)(F)(F)(F)F.F[P-](F)(F)(F)(F)F
- solubility (mole fraction) (in acetone, 283 K): 0.0599
- solubility (mole fraction) (in acetone, 288 K): 0.061
- solubility (mole fraction) (in acetone, 293 K): 0.0621
- solubility (mole fraction) (in acetone, 298 K): 0.0631
- solubility (mole fraction) (in acetone, 303 K): 0.0641
- solubility (mole fraction) (in acetonitrile, 283 K): 0.0726
- solubility (mole fraction) (in acetonitrile, 288 K): 0.0749
- solubility (mole fraction) (in acetonitrile, 293 K): 0.0775
- solubility (mole fraction) (in acetonitrile, 298 K): 0.0802
- solubility (mole fraction) (in acetonitrile, 303 K): 0.0834
- solubility (mole fraction) (in ethanol, 283 K): 3.2e-05
- solubility (mole fraction) (in ethanol, 288 K): 3.8e-05
- solubility (mole fraction) (in ethanol, 293 K): 4.7e-05
- solubility (mole fraction) (in ethanol, 298 K): 5.6e-05
- solubility (mole fraction) (in ethanol, 303 K): 6.9e-05
- solubility (mole fraction) (in methanol, 283 K): 0.000171
- solubility (mole fraction) (in methanol, 288 K): 0.000234
- solubility (mole fraction) (in methanol, 293 K): 0.000298
- solubility (mole fraction) (in methanol, 298 K): 0.000376
- solubility (mole fraction) (in methanol, 303 K): 0.000464
- solubility (mole fraction) (in water, 283 K): 0.000118
- solubility (mole fraction) (in water, 288 K): 0.000157
- solubility (mole fraction) (in water, 293 K): 0.00021
- solubility (mole fraction) (in water, 298 K): 0.000271
- solubility (mole fraction) (in water, 303 K): 0.000345
